# Measured values from PubChem BioAssay AID1845198 (Molecular Pharmacology Branch, DTP, NCI, 2023).
# Test system: 425362-245-T-J1 tumor spheroids, viability % test/control
# Assay: Anticancer human tumor 425362-245-T-J1 patient-derived melanoma cell line growth inhibition
# Conditions: spheroids with HUVEC and MSC; for IC50: curve of first compound; for viability, T/C: stronger effect = lower value
# Method in brief: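 Complex spheroids of malignant cells with endothelial cells and mesenchymal stem cells; agents alone or combined, from near clinical Cmax (or 10 microM if unknown) down in half-log steps, 0.25% DMSO final.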
# [1] = second compound 30 pM, first compound 0.00949 µM
# [2] = second compound 30 pM, first compound 0.03 µM
# [3] = second compound 30 pM, first compound 0.0949 µM
# [4] = second compound 30 pM, first compound 0.3 µM
# [5] = second compound 30 pM, first compound 0.949 µM
# [6] = second compound 30 pM, first compound 3 µM
# [7] = second compound 94.9 pM, first compound 0.00949 µM
# [8] = second compound 94.9 pM, first compound 0.03 µM
# [9] = second compound 94.9 pM, first compound 0.0949 µM
# [10] = second compound 94.9 pM, first compound 0.3 µM
# [11] = second compound 94.9 pM, first compound 0.949 µM
# [12] = second compound 94.9 pM, first compound 3 µM
# [13] = second compound 0.0003 µM, first compound 0.00949 µM
# [14] = second compound 0.0003 µM, first compound 0.03 µM
# [15] = second compound 0.0003 µM, first compound 0.0949 µM
# [16] = second compound 0.0003 µM, first compound 0.3 µM
# [17] = second compound 0.0003 µM, first compound 0.949 µM
# [18] = second compound 0.0003 µM, first compound 3 µM
# [19] = second compound 0.000949 µM, first compound 0.00949 µM
# [20] = second compound 0.000949 µM, first compound 0.03 µM
# [21] = second compound 0.000949 µM, first compound 0.0949 µM
# [22] = second compound 0.000949 µM, first compound 0.3 µM
# [23] = second compound 0.000949 µM, first compound 0.949 µM
# [24] = second compound 0.000949 µM, first compound 3 µM
# [25] = second compound 0.003 µM, first compound 0.00949 µM
# [26] = second compound 0.003 µM, first compound 0.03 µM
# [27] = second compound 0.003 µM, first compound 0.0949 µM
# [28] = second compound 0.003 µM, first compound 0.3 µM
# [29] = second compound 0.003 µM, first compound 0.949 µM
# [30] = second compound 0.003 µM, first compound 3 µM
# 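Note: spheroids exposed to agents for 7 days.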
# 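Throughout, for viability, T/C: 100% = DMSO vehicle control viability.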
Compound,IC50 (second compound 30 pM) [nM],IC50 (second compound 94.9 pM) [nM],IC50 (second compound 0.0003 µM) [nM],IC50 (second compound 0.000949 µM) [nM],IC50 (second compound 0.003 µM) [nM],"viability, T/C [3] [%]","viability, T/C [4] [%]","viability, T/C [5] [%]","viability, T/C [6] [%]","viability, T/C [9] [%]","viability, T/C [10] [%]","viability, T/C [11] [%]","viability, T/C [12] [%]","viability, T/C [15] [%]","viability, T/C [16] [%]","viability, T/C [17] [%]","viability, T/C [18] [%]","viability, T/C [21] [%]","viability, T/C [22] [%]","viability, T/C [23] [%]",other results
CNCc1ccc(-c2cc(-c3nc(-c4ccc(S(=O)(=O)C(C)C)cc4)cnc3N)on2)cc1 + COc1cc2c(cc1O)CCNC21CSC2c3c(OC(C)=O)c(C)c4c(c3C(COC1=O)N1C(O)C3Cc5cc(C)c(OC)c(O)c5C(C21)N3C)OCO4,161,131,< 9.49,< 9.49,< 9.49,85.1,8.53,2.32,0.13,68.1,3.99,1.51,0.15,16.4,1.69,0.79,0.15,0.27,0.35,0.13,"viability, T/C [1]: 108%; viability, T/C [2]: 113%; viability, T/C [7]: 96.3%; viability, T/C [8]: 103%; viability, T/C [13]: 43.7%; viability, T/C [14]: 37%; viability, T/C [19]: 0.41%; viability, T/C [20]: 0.41%; viability, T/C [24]: 0.17%; viability, T/C [25]: 0.26%; viability, T/C [26]: 0.28%; viability, T/C [27]: 0.27%; viability, T/C [28]: 0.22%; viability, T/C [29]: 0.2%; viability, T/C [30]: 0.27%"
Cc1sc2c(c1C)C(c1ccc(Cl)cc1)=NC(CC(=O)Nc1ccc(O)cc1)c1nnc(C)n1-2 (stereo not given) + COc1cc2c(cc1O)CCNC21CSC2c3c(OC(C)=O)c(C)c4c(c3C(COC1=O)N1C(O)C3Cc5cc(C)c(OC)c(O)c5C(C21)N3C)OCO4,69.4,67.7,11.2,< 9.49,< 9.49,46,14.2,1.75,1.2,40.3,5.16,2.11,0.76,17.1,3.14,0.36,0.19,0.1,0.04,0.04,"viability, T/C [1]: 98.3%; viability, T/C [2]: 69.6%; viability, T/C [7]: 94.7%; viability, T/C [8]: 76.6%; viability, T/C [13]: 52.1%; viability, T/C [14]: 37.9%; viability, T/C [19]: 0.26%; viability, T/C [20]: 0.2%; viability, T/C [24]: 0.14%; viability, T/C [25]: 0.25%; viability, T/C [26]: 0.27%; viability, T/C [27]: 0.18%; viability, T/C [28]: 0.17%; viability, T/C [29]: 0.18%; viability, T/C [30]: 0.29%"
Cn1ncnc1[C@H]1c2n[nH]c(=O)c3cc(F)cc(c23)N[C@@H]1c1ccc(F)cc1 + COc1cc2c(cc1O)CCNC21CSC2c3c(OC(C)=O)c(C)c4c(c3C(COC1=O)N1C(O)C3Cc5cc(C)c(OC)c(O)c5C(C21)N3C)OCO4,12.5,< 9.49,< 9.49,< 9.49,< 9.49,19.6,13.2,6.87,1.96,14.8,9.34,4.06,1.23,3.81,4.9,1.34,0.77,0.27,0.14,0.13,"viability, T/C [1]: 56.7%; viability, T/C [2]: 30.3%; viability, T/C [7]: 42.5%; viability, T/C [8]: 20%; viability, T/C [13]: 25.2%; viability, T/C [14]: 6.95%; viability, T/C [19]: 0.45%; viability, T/C [20]: 0.42%; viability, T/C [24]: 0.22%; viability, T/C [25]: 0.34%; viability, T/C [26]: 0.37%; viability, T/C [27]: 0.33%; viability, T/C [28]: 0.35%; viability, T/C [29]: 0.3%; viability, T/C [30]: 0.36%"
O=C(c1cc(Cc2n[nH]c(=O)c3ccccc23)ccc1F)N1CCN(C(=O)C2CC2)CC1 + COc1cc2c(cc1O)CCNC21CSC2c3c(OC(C)=O)c(C)c4c(c3C(COC1=O)N1C(O)C3Cc5cc(C)c(OC)c(O)c5C(C21)N3C)OCO4,2110,1420,< 94.9,< 94.9,< 94.9,87.2,93.6,67.9,43.4,83.1,79.2,56.2,36.3,32.6,35.5,22.8,7.06,0.47,0.29,0.17,"viability, T/C (second compound 30 pM, first compound 9.49 µM): 10.1%; viability, T/C (second compound 30 pM, first compound 30 µM): 6.76%; viability, T/C (second compound 94.9 pM, first compound 9.49 µM): 5.46%; viability, T/C (second compound 94.9 pM, first compound 30 µM): 4.13%; viability, T/C (second compound 0.0003 µM, first compound 9.49 µM): 1.54%; viability, T/C (second compound 0.0003 µM, first compound 30 µM): 1.07%; viability, T/C [24]: 0.09%; viability, T/C (second compound 0.000949 µM, first compound 9.49 µM): 0.04%; viability, T/C (second compound 0.000949 µM, first compound 30 µM): 0.16%; viability, T/C [27]: 0.3%; viability, T/C [28]: 0.32%; viability, T/C [29]: 0.26%; viability, T/C [30]: 0.14%; viability, T/C (second compound 0.003 µM, first compound 9.49 µM): 0.15%; viability, T/C (second compound 0.003 µM, first compound 30 µM): 0.3%"
